Reference: ChEMBL document CHEMBL3046257, “Response of sweet maize (Zea mays L.) hybrids to halosulfuron” (Crop Prot, 2008)

Key:
Type in all cases: organism-based
Zea mays [1] = experiment: Toxicity in Zea mays Empire (maize) assessed as visible injury at 25 g ai/ha applied shortly post-emergence at three to five-leaf stage using backpack sprayer measured after 7 days; conditions: in vivo, other, 168 h
Zea mays [2] = experiment: Toxicity in Zea mays GH2298 (maize) assessed as visible injury at 50 g ai/ha applied shortly post-emergence at three to five-leaf stage using backpack sprayer measured after 14 days; conditions: in vivo, other, 336 h
Zea mays [3] = experiment: Toxicity in Zea mays GH2298 (maize) assessed as visible injury at 50 g ai/ha applied shortly post-emergence at three to five-leaf stage using backpack sprayer measured after 7 days; conditions: in vivo, other, 168 h
Zea mays [4] = experiment: Toxicity in Zea mays GG214 (maize) assessed as visible injury at 50 g ai/ha applied shortly post-emergence at three to five-leaf stage using backpack sprayer measured after 14 days; conditions: in vivo, other, 336 h
Zea mays [5] = experiment: Toxicity in Zea mays GG446 (maize) assessed as visible injury at 25 g ai/ha applied shortly post-emergence at three to five-leaf stage using backpack sprayer measured after 28 days; conditions: in vivo, other, 672 h
Zea mays [6] = experiment: Toxicity in Zea mays GG446 (maize) assessed as visible injury at 25 g ai/ha applied shortly post-emergence at three to five-leaf stage using backpack sprayer measured after 14 days; conditions: in vivo, other, 336 h
Zea mays [7] = experiment: Toxicity in Zea mays GG446 (maize) assessed as visible injury at 50 g ai/ha applied shortly post-emergence at three to five-leaf stage using backpack sprayer measured after 7 days; conditions: in vivo, other, 168 h
Zea mays [8] = experiment: Toxicity in Zea mays GH2041 (maize) assessed as visible injury at 50 g ai/ha applied shortly post-emergence at three to five-leaf stage using backpack sprayer measured after 7 days; conditions: in vivo, other, 168 h
Zea mays [9] = experiment: Toxicity in Zea mays GH2547 (maize) assessed as visible injury at 25 g ai/ha applied shortly post-emergence at three to five-leaf stage using backpack sprayer measured after 28 days; conditions: in vivo, other, 672 h
Zea mays [10] = experiment: Toxicity in Zea mays GH2298 (maize) assessed as plant height at 25 g ai/ha applied shortly post-emergence at three to five-leaf stage using backpack sprayer measured after 21 days (Rvb =80 cm); conditions: in vivo, other, 504 h
Zea mays [11] = experiment: Toxicity in Zea mays GH2041 (maize) assessed as plant height at 50 g ai/ha applied shortly post-emergence at three to five-leaf stage using backpack sprayer measured after 21 days (Rvb =80 cm); conditions: in vivo, other, 504 h
Zea mays [12] = experiment: Toxicity in Zea mays GH2547 (maize) assessed as plant height at 25 g ai/ha applied shortly post-emergence at three to five-leaf stage using backpack sprayer measured after 21 days (Rvb =80 cm); conditions: in vivo, other, 504 h
Zea mays [13] = experiment: Toxicity in Zea mays GH2298 (maize) assessed as marketable yield at 25 g ai/ha applied shortly post-emergence at three to five-leaf stage using backpack sprayer (reference value: 16.9 T/ha ); conditions: in vivo, other
Zea mays [14] = experiment: Toxicity in Zea mays GG214 (maize) assessed as marketable yield at 25 g ai/ha applied shortly post-emergence at three to five-leaf stage using backpack sprayer (reference value: 14.2 T/ha ); conditions: in vivo, other
Zea mays [15] = experiment: Toxicity in Zea mays GG446 (maize) assessed as marketable yield at 50 g ai/ha applied shortly post-emergence at three to five-leaf stage using backpack sprayer (reference value: 20.0 T/ha ); conditions: in vivo, other
Zea mays [16] = experiment: Toxicity in Zea mays GG446 (maize) assessed as marketable yield at 25 g ai/ha applied shortly post-emergence at three to five-leaf stage using backpack sprayer (reference value: 20.0 T/ha ); conditions: in vivo, other
Zea mays [17] = experiment: Toxicity in Zea mays GSS9299 (maize) assessed as cob size at 50 g ai/ha applied shortly post-emergence at three to five-leaf stage using backpack sprayer (reference value: 292 g); conditions: in vivo, other
Zea mays [18] = experiment: Toxicity in Zea mays GH2684 (maize) assessed as cob size at 25 g ai/ha applied shortly post-emergence at three to five-leaf stage using backpack sprayer (reference value: 340 g); conditions: in vivo, other
Zea mays [19] = experiment: Toxicity in Zea mays GH2041 (maize) assessed as cob size at 25 g ai/ha applied shortly post-emergence at three to five-leaf stage using backpack sprayer (reference value: 285 g); conditions: in vivo, other
Zea mays [20] = experiment: Toxicity in Zea mays GG214 (maize) assessed as cob size at 50 g ai/ha applied shortly post-emergence at three to five-leaf stage using backpack sprayer (reference value: 292 g); conditions: in vivo, other
Zea mays [21] = experiment: Toxicity in Zea mays GG214 (maize) assessed as plant height at 25 g ai/ha applied shortly post-emergence at three to five-leaf stage using backpack sprayer measured after 21 days (Rvb =81 cm); conditions: in vivo, other, 504 h
Zea mays [22] = experiment: Toxicity in Zea mays GSS9299 (maize) assessed as visible injury at 50 g ai/ha applied shortly post-emergence at three to five-leaf stage using backpack sprayer measured after 28 days; conditions: in vivo, other, 672 h
Zea mays [23] = experiment: Toxicity in Zea mays GSS9299 (maize) assessed as visible injury at 25 g ai/ha applied shortly post-emergence at three to five-leaf stage using backpack sprayer measured after 28 days; conditions: in vivo, other, 672 h
Zea mays [24] = experiment: Toxicity in Zea mays GSS9299 (maize) assessed as visible injury at 50 g ai/ha applied shortly post-emergence at three to five-leaf stage using backpack sprayer measured after 7 days; conditions: in vivo, other, 168 h
Zea mays [25] = experiment: Toxicity in Zea mays GSS9299 (maize) assessed as visible injury at 25 g ai/ha applied shortly post-emergence at three to five-leaf stage using backpack sprayer measured after 14 days; conditions: in vivo, other, 336 h
Zea mays [26] = experiment: Toxicity in Zea mays GSS9299 (maize) assessed as visible injury at 25 g ai/ha applied shortly post-emergence at three to five-leaf stage using backpack sprayer measured after 7 days; conditions: in vivo, other, 168 h
Zea mays [27] = experiment: Toxicity in Zea mays GH2684 (maize) assessed as visible injury at 50 g ai/ha applied shortly post-emergence at three to five-leaf stage using backpack sprayer measured after 28 days; conditions: in vivo, other, 672 h
Zea mays [28] = experiment: Toxicity in Zea mays GH2684 (maize) assessed as visible injury at 25 g ai/ha applied shortly post-emergence at three to five-leaf stage using backpack sprayer measured after 7 days; conditions: in vivo, other, 168 h
Zea mays [29] = experiment: Toxicity in Zea mays GH2684 (maize) assessed as visible injury at 50 g ai/ha applied shortly post-emergence at three to five-leaf stage using backpack sprayer measured after 7 days; conditions: in vivo, other, 168 h
Zea mays [30] = experiment: Toxicity in Zea mays GH2041 (maize) assessed as marketable yield at 25 g ai/ha applied shortly post-emergence at three to five-leaf stage using backpack sprayer (reference value: 12.2 T/ha ); conditions: in vivo, other
Zea mays [31] = experiment: Toxicity in Zea mays GG446 (maize) assessed as cob size at 25 g ai/ha applied shortly post-emergence at three to five-leaf stage using backpack sprayer (reference value: 379 g); conditions: in vivo, other
Zea mays [32] = experiment: Toxicity in Zea mays GSS9299 (maize) assessed as plant height at 50 g ai/ha applied shortly post-emergence at three to five-leaf stage using backpack sprayer measured after 21 days (Rvb =69 cm); conditions: in vivo, other, 504 h
Zea mays [33] = experiment: Toxicity in Zea mays Empire (maize) assessed as plant height at 25 g ai/ha applied shortly post-emergence at three to five-leaf stage using backpack sprayer measured after 21 days (Rvb =73 cm); conditions: in vivo, other, 504 h

In the case of `COc1cc(OC)nc(NC(=O)NS(=O)(=O)c2c(C(=O)O)c(Cl)nn2C)n1` [HALOSULFURON], the Activity (Zea mays [1]) is reported as 4%, the Activity (Zea mays [2]) is reported as 4% and the Activity (Zea mays [3]) is reported as 6%. For the same compound, the Activity (Zea mays [4]) was 1%, the Activity (Zea mays [5]) was 0% and the Activity (Zea mays [6]) was 0%. It also gave an Activity (Zea mays [7]) of 0%, an Activity (Zea mays [8]) of 2% and an Activity (Zea mays [9]) of 0%. For the same compound, the Activity (Zea mays [10]) was 76 cm, the Activity (Zea mays [11]) was 77 cm and the Activity (Zea mays [12]) was 78 cm. For the same compound, the Crop_yield (Zea mays [13]) was 16.4 tons/ha, the Crop_yield (Zea mays [14]) was 13.4 tons/ha and the Crop_yield (Zea mays [15]) was 19.6 tons/ha. For the same compound, the Crop_yield (Zea mays [16]) was 19.3 tons/ha, the Activity (Zea mays [17]) was 297 g and the Activity (Zea mays [18]) was 316 g. The Activity (Zea mays [19]) was 273 g, the Activity (Zea mays [20]) was 287 g and the Activity (Zea mays [21]) was 77 cm. The Activity (Zea mays [22]) was 1%, the Activity (Zea mays [23]) was 0% and the Activity (Zea mays [24]) was 2%. It also gave an Activity (Zea mays [25]) of 2%, an Activity (Zea mays [26]) of 1% and an Activity (Zea mays [27]) of 1%. For the same compound, the Activity (Zea mays [28]) was 4%, the Activity (Zea mays [29]) was 7% and the Crop_yield (Zea mays [30]) was 11.8 tons/ha. For the same compound, the Activity (Zea mays [31]) was 370 g, the Activity (Zea mays [32]) was 68 cm and the Activity (Zea mays [33]) was 69 cm.
